Data set [1] deals with Mycobacterium tuberculosis H37 Rv. As to the kind of experiment: Antibacterial activity against a tubercle bacillus, two-fold dilution in Kirchner liquid medium. The following applies: Table 3; Kirchner medium with 10% bovine serum, 37° C., 4 weeks.
Data set [2] has the same test system. The data set can be described thus: Therapeutic effect on mice experimentally infected with tuberculosis (FIG. 1, groups of 20 mice). The following applies: oral, 200 μg/mouse, once a day, six days a week.
Description: In FIG. 1, the point, a, means the time that mice were infected, and the point, b, means the time that the treatment started.
For data set [3], the system named is Bacillus subtilis IFO 3134. The data set can be described thus: Antibacterial activity, standard method of Japan Society of Chemotherapy (Table 2). Type of data set: cell-based. The following applies: IFO3134, read-out: Minimal inhibitory concentration. An excerpt:
(§1) Derivative No. in Table 2 corresponds to derivative No. in Table 1.

Data set [4] concerns Escherichia coli IFO 12734. The description is as above. It counts as cell-based. The following applies: IFO12734, read-out: Minimal inhibitory concentration.
Description: as §1

The subject of data set [5] is Mycobacterium smegmatis ATCC 607. The description is as above. The following applies: Mycolicibacterium smegmatis, ATCC607, read-out: Minimal inhibitory concentration. Type of data set: cell-based.
Description: as §1

In data set [6] the test system is Staphylococcus aureus IFO 12732. The data set is described as above. The following applies: IFO12732, read-out: Minimal inhibitory concentration. Type of data set: cell-based.
Description: as §1

For data set [7], the system named is Klebsiella pneumoniae IFO 3512. The data set is described as above. Particulars: IFO3512, read-out: Minimal inhibitory concentration. Type of data set: cell-based.
Description: as §1

Data set [8] concerns Micrococcus luteus IFO 12708. The data set is described as above. Type of data set: cell-based. The following applies: IFO12708, read-out: Minimal inhibitory concentration.
Description: as §1

The nature of data set [9]: Plasma concentration after oral administration to mice, bioassay with Micrococcus luteus IFO 12708. Particulars: mouse, 20 mg/kg. Type of data set: in vivo, ddY male mice. The procedure: The derivatives No. 4 and No. 11 shown in Table 1 were orally administered to ddY male mice (7 weeks), respectively, in a dose of 20 mg/kg. The concentration of the test compound in the plasma was measured by a bioassay method employing Micrococcus luteus IFO 12708 as an assay bacterium according to a usual manner. The results are as follows: As for the derivative No. 4, the concentrations in the plasma after 1 hour, 3 hours, 5 hours and 8 hours from the administration were 17.0 μg/ml, 13.3 μg/ml, 14.5 μg/ml, 4.2 μg/ml, respectively. As for the derivative No. 11, the concentrations in the plasma after 1 hour, 3 hours, 5 hours and 8 hours from the administration were 17.3 μg/ml, 16.2 μg/ml, 13.8 μg/ml and 10.1 μg/ml, respectively.

Data set [10] relates to Mycobacterium tuberculosis H37 Rv. As to the kind of experiment: Repeated treatment test of mice infected with tuberculosis, survival on fortieth day (groups of 10 mice). The following applies: oral, 200 μg/mouse.

Values after ≈ are worked out from the molar mass of the structure shown. A value given as a limit tells only on which side of the number the result lay.

As to `CCOc1c(N2CCN(CC(C)C)CC2)ccc2nc3c4c5c6c(C)c(O)c4c(=O)c(c-3oc12)NC(=O)C(C)=CC=CC(C)C(O)C(C)C(O)C(C)C(OC(C)=O)C(C)C(OC)C=COC(C)(O6)C5=O` (centres unmarked) [Derivative No. 8], the Minimal inhibitory concentration in data set [1] came to 0.07 µg/mL (≈ 0.0722 µM). For the same compound, in [2], the “therapeutic effect as compared with rifampicin and derivative A” value was “excellent therapeutic effect as compared with rifampicin”. In addition, the MIC in data set [3] was at most 0.02 µg/mL; in data set [4], above 10 µg/mL; in data set [5] it was 0.63 µg/mL (≈ 0.65 µM); in data set [6] it was at most 0.02 µg/mL; in [7] it was above 10 µg/mL; in data set [8], at most 0.02 µg/mL.

`COC1C=COC2(C)Oc3c(C)c(O)c4c(=O)c(c5oc6cc(N7CCCCC7)ccc6nc-5c4c3C2=O)NC(=O)C(C)=CC=CC(C)C(O)C(C)C(O)C(C)C(OC(C)=O)C1C` (centres unmarked) [Derivative B]: the “therapeutic effect as compared with rifampicin” value in data set [2] is given as “inferior to rifampicin”.

As to `CCc1c(N2CCCC2)ccc2nc3c4c5c6c(C)c(O)c4c(=O)c(c-3oc12)NC(=O)C(C)=CC=CC(C)C(O)C(C)C(O)C(C)C(OC(C)=O)C(C)C(OC)C=COC(C)(O6)C5=O` (centres unmarked) [Derivative C], the “therapeutic effect as compared with rifampicin” value in data set [2] is listed as “inferior to rifampicin”.

The compound `CCOc1c(N2CCCC2)ccc2nc3c4c5c6c(C)c(O)c4c(=O)c(c-3oc12)NC(=O)C(C)=CC=CC(C)C(O)C(C)C(O)C(C)C(OC(C)=O)C(C)C(OC)C=COC(C)(O6)C5=O` (centres unmarked) [Derivative No. 4] gave a Minimal inhibitory concentration in data set [1] of 0.017 µg/mL (≈ 0.0189 µM). The MIC in [3] is 0.04 µg/mL (≈ 0.0445 µM); in [4], above 10 µg/mL; in data set [5], 0.63 µg/mL (≈ 0.702 µM); in data set [6] it was at most 0.02 µg/mL; in data set [7], above 10 µg/mL; in [8], 0.04 µg/mL (≈ 0.0445 µM). Moreover, in data set [9] (1 hour), the concentration at 1 h worked out at 17000 ng/mL. Besides, the concentration at 3 h in data set [9] (3 hours) was determined as 13300 ng/mL. In data set [9] (5 hours), this compound showed a concentration at 5 h of 14500 ng/mL. Also, the concentration at 8 h in data set [9] (8 hours) is 4200 ng/mL. Besides, the Survival rate in data set [10] is on record as 100%. Moreover, in [10], the dead mice entry is “there was not observed any dead mouse”.

The values are drawn from patent US4965261A, “Substituted benzoxazinorifamycin derivative and antibacterial agent containing the same” (Kanegafuchi Kagaku Kogyo Kabushiki Kaisha, priority 1988, dated 1990).
